Experiments:
UnaG = target: UnaG; design: method as in PMID 23768684; settings: modified FABP family member derived from eel; cited from earlier work
PPARα = target: PPARα; design: method as in PMID 37390966, PMID 34067839; settings: liver and adipose tissue; cited from earlier work
WNK1 (1–491) = target: T1, WNK1 (1–491) (Homo sapiens, UniProt Q9H4A3); assay: MST, EGFP-tagged WNK1 truncation 1–491; format: binding; settings: WNK1 1–491, 15 min, HEK293T lysates
T1 construct: different lengths of WNK1 truncations (1–491, 1–190, 191–491, 491–2382); expressed in transfected cells; host or cells: HEK293T
T1 sequence (Q9H4A3 1-491): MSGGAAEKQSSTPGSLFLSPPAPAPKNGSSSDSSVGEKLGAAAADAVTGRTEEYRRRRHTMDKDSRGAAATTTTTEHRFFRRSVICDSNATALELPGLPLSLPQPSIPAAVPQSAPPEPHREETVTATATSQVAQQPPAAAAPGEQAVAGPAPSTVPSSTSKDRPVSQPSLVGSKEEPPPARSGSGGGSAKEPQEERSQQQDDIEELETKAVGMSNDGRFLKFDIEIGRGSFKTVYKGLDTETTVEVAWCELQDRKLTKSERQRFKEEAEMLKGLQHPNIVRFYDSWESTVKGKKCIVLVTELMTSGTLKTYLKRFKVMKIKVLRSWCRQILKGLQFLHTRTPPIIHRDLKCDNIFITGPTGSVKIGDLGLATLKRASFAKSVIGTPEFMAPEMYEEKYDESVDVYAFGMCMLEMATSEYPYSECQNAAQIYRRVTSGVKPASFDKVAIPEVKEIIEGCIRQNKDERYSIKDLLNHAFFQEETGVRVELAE
Excerpt: To further validate these findings, we constructed GFP‐tagged fusion proteins with different lengths of WNK1 truncations (1–491, 1–190, 191–491, 491–2382) based on the WNK1 domains (Figure 3E) and analyzed their binding capacity with bilirubin using MST analysis.^[ [29] ^]
(§1) All WNK1 clones were derived from the original untagged hWNK1 cDNA (NM_018979), which was modified and subcloned into the pcDNA3.1, referred to as “full‐length WNK1” throughout this study. Truncated constructs, including 1–190aa, 191–491aa, 1–491aa, and 491–2382aa fragments, were generated by PCR using the full‐length template and subsequently ligated into linearized pcDNA3.1 vectors. WNK2 was obtained from Addgene Plasmid #24569, and WNK3 was obtained from Addgene Plasmid #81723. Both were subjected to base modifications and cloned into pcDNA3.1. The WNK4 clone was derived from hWNK4 cDNA (NM_032387.5), modified, and subcloned into the pCMV3‐C‐GFPSpark vector.
In HEK293T cells, proteins tagged with green fluorescent protein (GFP) were expressed. The cells were lysed using the M‐PER Mammalian Protein Extraction Reagent (cat. no. 78505, Thermo Scientific) supplemented with protease inhibitors. Lysates were centrifuged at 12000 × g for 15 min at 4 °C, and the supernatant containing proteins was diluted 10‐fold with 1x PBST. […]

FABP1 = test system: FABP1; design: method as in PMID 37390966, PMID 34067839; settings: cited from earlier work
hWNK1(181–507 S382A) = target: T2, hWNK1(181–507 S382A) (Homo sapiens, UniProt Q9H4A3, S382A); assay: ADP-Glo kinase assay, kinase-dead WNK1 mutant control; format: biochemical; settings: negative control
T2 construct: The kinase‐dead WNK1 mutant hWNK1(181–507 S382A) served as a negative control
T2 sequence (Q9H4A3 181-507 S382A): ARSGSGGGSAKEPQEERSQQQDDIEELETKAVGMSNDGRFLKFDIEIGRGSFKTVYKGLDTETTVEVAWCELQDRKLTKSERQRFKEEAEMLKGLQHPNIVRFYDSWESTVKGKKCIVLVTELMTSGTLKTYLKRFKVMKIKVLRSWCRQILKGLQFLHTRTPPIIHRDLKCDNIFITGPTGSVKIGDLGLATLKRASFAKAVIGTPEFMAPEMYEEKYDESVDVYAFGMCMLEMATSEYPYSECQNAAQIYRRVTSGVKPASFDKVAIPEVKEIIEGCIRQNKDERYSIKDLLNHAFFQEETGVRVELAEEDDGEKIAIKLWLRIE
Excerpt: Given the binding of bilirubin to the kinase domain of WNK1, we aimed to explore its effect on WNK1 with a particular focus on its kinase activity. To evaluate WNK1 kinase activity, we utilized an in vitro kinase enzyme assay system to quantify ADP production by the amino acid fragment 181–507 of human WNK1 (hWNK1) over a range of bilirubin concentrations. The kinase‐dead WNK1 mutant hWNK1(181–507 S382A) served as a negative control (Figure S10, Supporting Information).^[ [30] ^]
WNK1 kinase activity was measured using the ADP‐Glo Kinase Assay (Promega, Cat. V9101) following the manufacturer's instructions. Purified protein was incubated with bilirubin across a range of 12 serially diluted concentrations, beginning at a maximum concentration of 20 µM. After the incubation period, luminescence was recorded using a microplate reader (Synergy H1M, BioTek)

full-length hWNK1 = target: T3, full-length hWNK1 (Homo sapiens, UniProt Q9H4A3); assay: MicroScale Thermophoresis (MST), EGFP-tagged full-length WNK1 in HEK293T cell lysates; format: binding; settings: 15 min incubation, lysates of EGFP-WNK1 expressing HEK293T cells
T3 construct: We overexpressed full‐length WNK1 fused with Green Fluorescent Protein (GFP); expressed in transfected cells; host or cells: HEK293T
T3 sequence (Q9H4A3 whole entry, the tested form may be a part): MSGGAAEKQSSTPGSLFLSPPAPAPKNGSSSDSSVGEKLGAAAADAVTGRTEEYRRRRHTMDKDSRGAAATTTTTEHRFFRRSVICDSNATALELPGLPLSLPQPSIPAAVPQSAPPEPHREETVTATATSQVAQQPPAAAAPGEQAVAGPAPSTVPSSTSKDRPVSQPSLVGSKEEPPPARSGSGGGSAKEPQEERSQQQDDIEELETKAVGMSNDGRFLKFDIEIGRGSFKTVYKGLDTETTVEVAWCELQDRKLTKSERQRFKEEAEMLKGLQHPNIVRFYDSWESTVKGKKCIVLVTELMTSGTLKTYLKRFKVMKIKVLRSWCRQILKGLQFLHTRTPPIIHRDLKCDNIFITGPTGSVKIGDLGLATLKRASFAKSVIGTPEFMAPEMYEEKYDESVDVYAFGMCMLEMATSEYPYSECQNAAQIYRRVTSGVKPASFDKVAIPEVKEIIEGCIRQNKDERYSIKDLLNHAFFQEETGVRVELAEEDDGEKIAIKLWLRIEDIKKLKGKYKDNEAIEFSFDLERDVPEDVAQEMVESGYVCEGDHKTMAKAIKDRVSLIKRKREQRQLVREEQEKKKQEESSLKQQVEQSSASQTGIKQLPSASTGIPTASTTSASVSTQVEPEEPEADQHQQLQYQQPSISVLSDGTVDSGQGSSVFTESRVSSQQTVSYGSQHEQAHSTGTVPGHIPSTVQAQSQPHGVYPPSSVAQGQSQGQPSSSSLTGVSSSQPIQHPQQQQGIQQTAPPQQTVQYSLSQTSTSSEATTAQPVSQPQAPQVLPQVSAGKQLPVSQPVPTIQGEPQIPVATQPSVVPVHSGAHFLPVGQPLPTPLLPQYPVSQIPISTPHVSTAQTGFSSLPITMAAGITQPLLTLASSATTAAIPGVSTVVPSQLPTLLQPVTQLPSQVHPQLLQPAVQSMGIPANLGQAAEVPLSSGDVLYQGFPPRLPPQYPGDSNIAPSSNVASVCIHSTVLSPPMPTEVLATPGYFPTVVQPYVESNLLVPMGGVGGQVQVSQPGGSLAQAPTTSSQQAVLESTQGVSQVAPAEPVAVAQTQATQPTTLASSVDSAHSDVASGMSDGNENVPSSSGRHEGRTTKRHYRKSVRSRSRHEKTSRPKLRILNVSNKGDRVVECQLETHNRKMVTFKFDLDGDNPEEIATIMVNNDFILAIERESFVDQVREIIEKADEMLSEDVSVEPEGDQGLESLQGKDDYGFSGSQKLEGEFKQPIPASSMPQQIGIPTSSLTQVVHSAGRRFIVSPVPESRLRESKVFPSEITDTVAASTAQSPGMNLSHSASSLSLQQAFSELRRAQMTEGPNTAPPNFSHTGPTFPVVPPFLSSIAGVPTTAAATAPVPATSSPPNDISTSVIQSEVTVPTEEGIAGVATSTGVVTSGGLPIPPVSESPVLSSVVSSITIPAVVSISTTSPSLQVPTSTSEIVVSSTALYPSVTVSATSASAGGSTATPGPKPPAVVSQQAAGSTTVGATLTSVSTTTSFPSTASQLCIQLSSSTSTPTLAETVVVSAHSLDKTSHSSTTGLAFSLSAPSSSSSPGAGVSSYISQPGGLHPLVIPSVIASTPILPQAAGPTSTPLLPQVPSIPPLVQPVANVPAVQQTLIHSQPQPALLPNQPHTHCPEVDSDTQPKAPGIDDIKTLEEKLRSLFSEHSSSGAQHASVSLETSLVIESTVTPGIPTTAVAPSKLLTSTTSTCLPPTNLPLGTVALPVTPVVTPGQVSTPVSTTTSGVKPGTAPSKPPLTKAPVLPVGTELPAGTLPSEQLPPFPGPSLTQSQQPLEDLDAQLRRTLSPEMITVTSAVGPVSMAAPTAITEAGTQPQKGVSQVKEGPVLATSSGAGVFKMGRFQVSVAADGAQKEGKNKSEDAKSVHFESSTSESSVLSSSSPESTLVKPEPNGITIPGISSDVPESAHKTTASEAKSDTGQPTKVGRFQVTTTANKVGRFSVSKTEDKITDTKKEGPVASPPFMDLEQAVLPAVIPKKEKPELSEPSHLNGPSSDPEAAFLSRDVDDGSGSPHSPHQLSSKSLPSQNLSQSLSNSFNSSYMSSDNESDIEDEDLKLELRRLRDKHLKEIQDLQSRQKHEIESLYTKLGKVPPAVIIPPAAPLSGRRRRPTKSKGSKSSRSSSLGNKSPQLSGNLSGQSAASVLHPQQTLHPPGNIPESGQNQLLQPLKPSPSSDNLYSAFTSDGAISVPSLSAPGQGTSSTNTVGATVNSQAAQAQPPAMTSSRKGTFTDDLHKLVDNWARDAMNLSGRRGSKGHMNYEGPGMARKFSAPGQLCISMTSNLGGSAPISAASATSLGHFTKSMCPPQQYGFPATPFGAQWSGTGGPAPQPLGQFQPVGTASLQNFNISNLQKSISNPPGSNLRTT
Method: To validate the direct binding of bilirubin to WNK1, we performed a Microscale Thermophoresis (MST) analysis, which assesses the binding capacity of a compound by measuring the movement of proteins over a microscopic temperature gradient.^[ [26], [27] ^] We overexpressed full‐length WNK1 fused with Green Fluorescent Protein (GFP) in HEK‐293 cells, incubated the lysates with bilirubin at varying dilutions, and subjected them to precise MST measurements in capillaries. […] Furthermore, biliverdin, a structurally similar intermediate product generated before bilirubin formation, was used as a control.
as §1
In HEK293T cells, proteins tagged with green fluorescent protein (GFP) were expressed. […]

Question: For `C=CC1=C(C)/C(=C/c2[nH]c(Cc3[nH]c(/C=C4\NC(=O)C(C)=C4C=C)c(C)c3CCC(=O)O)c(CCC(=O)O)c2C)NC1=O` [bilirubin, Bilirubin], which Kd (UnaG) is on record?
Answer: Its Kd is 0.098 nM.

Question: What about the Kd (PPARα) of the same compound?
Answer: The Kd was 5130 nM.

Question: And the Kd (WNK1 (1–491))?
Answer: Its Kd is 315 nM.

Question: What about the “concentrations at which FABP1 binds bilirubin” value (FABP1) of the same compound?
Answer: The value was 1 to 4 µM.

Question: And the “effect on kinase activity of kinase-dead mutant” value (hWNK1(181–507 S382A))?
Answer: Its value is “no effect”.

Question: And the Kd (full-length hWNK1)?
Answer: The Kd was 67.2 nM.

— publication PMC12362796, “Bilirubin Targeting WNK1 to Alleviate NLRP3‐Mediated Neuroinflammation” (Advanced Science, 2025)
